The results in this text go back to ChEMBL document CHEMBL1955843, “Novel hepatitis C virus replicon inhibitors: synthesis and structure-activity relationships of fused pyrimidine derivatives” (Bioorg Med Chem Lett, 2012).

The subject of series [1] is Hepatitis C virus. Briefly: Antiviral activity against Hepatitis C virus subtype 1a infected in HuH7 cells assessed as inhibition of viral replication by RT-PCR analysis in the presence of fetal calf serum. The settings on record: Huh-7. Format: functional, organism-based, Hepacivirus hominis.
The test system of series [2] is Hepatitis C virus. Briefly: Antiviral activity against Hepatitis C virus subtype 1b infected in HuH7 cells assessed as inhibition of viral replication by RT-PCR analysis in the presence of fetal calf serum. In kind it is functional, organism-based, Hepacivirus hominis. The settings on record: genotype 1b, Huh-7.
Series [3] in a line: Cytotoxicity against human HuH7 cells by MTT assay. The following applies: read-out: TD50 (the source's name). In kind it is cell-based, Huh-7. In general terms: Tetrazolium dyes change colour on reduction, which living cells bring about.
Series [4] in a line: Ratio of EC50 for HCV subtype 1a to EC50 for HCV subtype 1b. Format: functional.
Series [5] deals with Hepatitis C virus. Briefly: Antiviral activity against Hepatitis C virus subtype 1b infected in HuH7 cells assessed as inhibition of viral replication by RT-PCR analysis in the presence of human serum. In kind it is functional, organism-based, Hepacivirus hominis. The following applies: genotype 1b, Huh-7.
Series [6] relates to Rattus norvegicus. Kind of series: Clearance in rat at 2.5 mg/kg, po and 2.5 mg/kg, iv. In kind it is ADME, organism-based. The settings on record: in vivo.
The nature of series [7]: Half life in rat at 2.5 mg/kg, po and 2.5 mg/kg, iv. Format: ADME, organism-based. The settings on record: in vivo.
Series [8] in a line: Cmax in rat at 2.5 mg/kg, po. The settings on record: in vivo. In kind it is ADME, organism-based. On the set-up: dose 2.5 mg/kg, route oral.
Series [9] relates to Rattus norvegicus. Kind of series: AUC in rat plasma at 2.5 mg/kg, po. In kind it is ADME, organism-based. Further details: dose 2.5 mg/kg, route oral. The settings on record: in vivo.
Series [10] has as its system Rattus norvegicus. Kind of series: Oral bioavailability in rat at 2.5 mg/kg. Format: ADME, organism-based. The settings on record: in vivo.

The term EC50 denotes the midpoint of the concentration-response curve. By half-life is commonly meant the time in which the quantity being followed falls by half. Broadly, the Cmax is the highest concentration seen after dosing. Usually AUC stands for concentration integrated over time. A lower AUC goes with less exposure.

As for `Cc1ccc(Sc2ccccc2)c(Nc2ncnc3nc(C4CCC4)ccc23)c1`, the values for the EC50 in the series with Hepatitis C virus [1] and in the series on Hepatitis C virus [2] were 6.1 µM and 1.6 µM, respectively. For the same compound, in series [3], the CC50 amounted to 3.6 µM.

On to `CCc1ccc2c(Nc3cc(C)ccc3Sc3ccc(NC(C)=O)cc3)ncnc2n1`, for which the EC50 with Hepatitis C virus [1] was over 12.5 µM; with Hepatitis C virus [2] it was 6.9 µM. Besides, the CC50 in [3] was over 12.5 µM.

`Cc1ccc(Sc2ccc(O)cc2)c(Nc2ncnc3nc(CC(C)C)ccc23)c1`: the EC50 was found to be 14.3 µM with Hepatitis C virus [1] and 2.4 µM in the series on Hepatitis C virus [2]. Moreover, in series [3], the CC50 was found to be 11.2 µM.

As to `Cc1ccc(Sc2ccc(O)cc2)c(Nc2ncnc3nc(C(C)(C)C)ccc23)c1`, the EC50 in the series with Hepatitis C virus [1] amounted to 4.6 µM; in the series on Hepatitis C virus [2] it was 0.47 µM. Further, the CC50 in [3] came to 7.1 µM.

Regarding `COc1ccc(Sc2ccc(C)cc2Nc2ncnc3nc(C)ccc23)cc1`, the EC50 with Hepatitis C virus [1] stood at 44.5 µM; with Hepatitis C virus [2] it was 13.3 µM. In addition, in [3], the CC50 is 28.6 µM.

Consider `Cc1ccc(Sc2ccc(O)cc2)c(Nc2ncnc3nc(C)ccc23)c1`, for which the EC50 is 23.4 µM in the series with Hepatitis C virus [1] and 0.05 µM in the series with Hepatitis C virus [2]. In series [3], the CC50 was over 100 µM.

`Cc1ccc(Sc2ccccc2)c(Nc2ccnc3nc(C)ccc23)c1`: the values for the concentration for a half-maximal effect (EC50) with Hepatitis C virus [1] and in the series with Hepatitis C virus [2] were 1.8 µM and 0.018 µM, respectively. Further, the CC50 in series [3] stood at 8.6 µM. Besides, in [4], the Ratio EC50 worked out at 100.

For the compound `CCOc1ncc2c(Nc3cc(C)ccc3Sc3ccc(O)cc3)ncnc2n1`, the EC50 amounted to 7.3 µM in the series on Hepatitis C virus [1] and 12 µM with Hepatitis C virus [2]. The CC50 in series [3] was determined as 29.7 µM.

As to `COc1ccc(Sc2ccc(C)cc2Nc2ncnc3nc(C(C)C)ccc23)cc1`, the results for the EC50 in the series with Hepatitis C virus [1] and with Hepatitis C virus [2] were 11.4 µM and 1.7 µM, respectively. For the same compound, the CC50 in series [3] worked out at 8.8 µM.

For the compound `CC(=O)Nc1ccc(Sc2ccc(C)cc2Nc2ncnc3nc(C)ccc23)cc1`, the EC50 with Hepatitis C virus [1] and with Hepatitis C virus [2] was over 50 µM in each case. For the same compound, in series [3], the CC50 is over 50 µM.

Regarding `Cc1ccc(Sc2ccc(O)cc2)c(Nc2ncnc3nc(N4CCCCC4)ncc23)c1`, the figures for the concentration for a half-maximal effect (EC50) with Hepatitis C virus [1] and in the series with Hepatitis C virus [2] were 22 µM and 2.8 µM, respectively. In series [3], the CC50 was over 50 µM.

In the case of `COc1ncc2c(Nc3cc(C)ccc3Sc3ccc(O)cc3)ncnc2n1`, the EC50 in the series on Hepatitis C virus [1] and in the series with Hepatitis C virus [2] was over 8 µM each time. Further, the CC50 in series [3] was over 8 µM.

As for `Cc1ccc(Sc2ccc(O)cc2)c(Nc2ncnc3nc(N4CCOCC4)ncc23)c1`, the results for the EC50 with Hepatitis C virus [1] and with Hepatitis C virus [2] were 14.1 µM and 7.3 µM, respectively. In addition, in series [3], the CC50 is over 50 µM.

Regarding `Cc1ccc(Sc2ccc(F)cc2)c(Nc2ncnc3nc(C)ccc23)c1`, the EC50 amounted to 10.5 µM with Hepatitis C virus [1] and 3 µM with Hepatitis C virus [2]. The CC50 in series [3] worked out at 6.1 µM.

For the compound `Cc1ccc(Sc2ccccc2)c(Nc2ncnc3nc(CC(C)C)ccc23)c1`, the results for the EC50 with Hepatitis C virus [1] and in the series with Hepatitis C virus [2] were 13.3 µM and 1 µM, respectively. The CC50 in series [3] is 7.5 µM.

Take `CCCc1ccc2c(Nc3cc(C)ccc3Sc3ccc(O)cc3)ncnc2n1`: the EC50 in the series on Hepatitis C virus [1] came out at 7.1 µM; in the series with Hepatitis C virus [2] it was 0.25 µM. Also, in [3], the CC50 came to 31.1 µM.

Consider `CC(=O)Nc1ccc(Sc2ccc(C)cc2Nc2ncnc3nc(C4CCC4)ccc23)cc1`, for which the EC50 with Hepatitis C virus [1] amounted to 15.8 µM; in the series on Hepatitis C virus [2], 3.7 µM. In series [3], the CC50 worked out at 49.2 µM.

Regarding `CCCc1ccc2c(Nc3cc(C)ccc3Sc3ccccc3)ncnc2n1`, the concentration for a half-maximal effect (EC50) in the series on Hepatitis C virus [1] is 9.5 µM; with Hepatitis C virus [2] it was 0.32 µM. For the same compound, the CC50 in series [3] came out at 11.8 µM.

Regarding `Cc1ccc(Sc2ccc(O)cc2)c(Nc2ncnc3nc(C4CC4)ccc23)c1`, the EC50 in the series on Hepatitis C virus [1] came to 10.5 µM; in the series with Hepatitis C virus [2], 1.6 µM. In [3], the CC50 worked out at 17.4 µM.

On to `CCCc1ccc2c(Nc3cc(C)ccc3Sc3ccc(NC(C)=O)cc3)ncnc2n1`, for which the results for the EC50 with Hepatitis C virus [1] and in the series on Hepatitis C virus [2] were 13.8 µM and 0.63 µM, respectively. The CC50 in series [3] is over 25 µM.

Consider `Cc1ccc(Sc2ccccc2)c(Nc2ncnc3nc(C)ccc23)c1`, for which the EC50 came out at 13.3 µM with Hepatitis C virus [1] and 3.84 µM with Hepatitis C virus [2]. In addition, in series [3], the CC50 was found to be 22.2 µM.

Turning to `CCSc1ncc2c(Nc3cc(C)ccc3Sc3ccc(O)cc3)ncnc2n1`, the EC50 in the series with Hepatitis C virus [1] was 4.8 µM; in the series on Hepatitis C virus [2], 0.01 µM. Moreover, in series [3], the CC50 was 46.9 µM.

As for `Cc1ccc(Sc2ccccc2)c(Nc2ncnc3nc(C(C)C)ccc23)c1`, the EC50 with Hepatitis C virus [1] is 10.3 µM; in the series with Hepatitis C virus [2], 3.4 µM. Besides, the CC50 in series [3] amounted to 8 µM.

As to `CC(=O)Nc1ccc(Sc2ccc(C)cc2Nc2ncnc3nc(CC(C)C)ccc23)cc1`, the results for the EC50 in the series on Hepatitis C virus [1] and in the series with Hepatitis C virus [2] were 27.4 µM and 3.3 µM, respectively. Besides, the CC50 in series [3] amounted to 38.5 µM.

Take `Cc1ccc(Sc2ccc(O)cc2)c(Nc2ncnc3nc(N(C)C)ncc23)c1`: the EC50 with Hepatitis C virus [1] and in the series with Hepatitis C virus [2] was over 50 µM throughout. For the same compound, in series [3], the CC50 is over 50 µM.

`Cc1ccc(Sc2ccc(O)cc2)c(Nc2ncnc3nc(C(C)C)ccc23)c1`: the EC50 was 0.17 µM with Hepatitis C virus [1], 0.016 µM in the series with Hepatitis C virus [2] and 0.17 µM with Hepatitis C virus [5]. Also, the CC50 in [3] is 22.9 µM. Moreover, the CL in the series with Rattus norvegicus [6] was determined as 26.3 mL/min/kg. Further, the half-life in series [7] was 3.1 h. Also, in series [8], the concentration peaked (Cmax) at 70 nM. Further, the AUC with Rattus norvegicus [9] came to 1580 ng·h/mL. In addition, in the series on Rattus norvegicus [10], the F stood at 10%.

`Cc1ccc(Sc2ccc(O)cc2)c(Nc2ncnc3nc(C4CCCCC4)ccc23)c1`: the EC50 in the series on Hepatitis C virus [1] was determined as 2.7 µM; in the series with Hepatitis C virus [2] it was 0.88 µM. In addition, the CC50 in [3] is over 3.12 µM.

Consider `CCc1ccc2c(Nc3cc(C)ccc3Sc3ccc(O)cc3)ncnc2n1`, for which the figures for the EC50 in the series with Hepatitis C virus [1] and with Hepatitis C virus [2] were 62.2 µM and 10 µM, respectively. In addition, the CC50 in [3] turned out to be 78 µM.

For `Cc1ccc(Sc2ccc(O)cc2)c(Nc2ncnc3nc(C4CCC4)ccc23)c1`, the EC50 amounted to 11.3 µM in the series with Hepatitis C virus [1] and 3.1 µM with Hepatitis C virus [2]. Also, the CC50 in series [3] was 31.8 µM.

With `Cc1ccc(Sc2ccc(NS(C)(=O)=O)cc2)c(Nc2ncnc3nc(C(C)C)ccc23)c1`, the EC50 with Hepatitis C virus [1] came out at 18.9 µM; in the series with Hepatitis C virus [2], 11.2 µM. Further, the CC50 in series [3] was over 50 µM.

Turning to `Cc1ccc(Sc2ccccc2)c(Nc2cccc3nc(C)ccc23)c1`, the results for the EC50 in the series with Hepatitis C virus [1] and with Hepatitis C virus [2] were 15.7 µM and 9.9 µM, respectively. Moreover, in [3], the CC50 is 15.9 µM.

Regarding `CCNc1ncc2c(Nc3cc(C)ccc3Sc3ccc(O)cc3)ncnc2n1`, the EC50 in the series with Hepatitis C virus [1] worked out at 47.6 µM; in the series with Hepatitis C virus [2], 30 µM. Also, in series [3], the CC50 was over 50 µM.

Consider `CCc1ccc2c(Nc3cc(C)ccc3Sc3ccccc3)ncnc2n1`, for which the EC50 in the series on Hepatitis C virus [1] is 18.9 µM; in the series on Hepatitis C virus [2] it was 3.4 µM. Also, the CC50 in series [3] turned out to be 22.7 µM.

`Cc1ccc(Sc2ccccc2)c(Nc2ncnc3nc(C4CC4)ccc23)c1`: the EC50 with Hepatitis C virus [1] came out at 10.4 µM; in the series with Hepatitis C virus [2], 3.7 µM. Also, the CC50 in series [3] stood at 9.9 µM.

As to `Cc1ccc(Sc2ccc(F)cc2)c(Nc2ncnc3nc(C(C)C)ccc23)c1`, the EC50 in the series on Hepatitis C virus [1] came to 3.2 µM; in the series with Hepatitis C virus [2], 1.8 µM. Also, in series [3], the CC50 amounted to 4.8 µM.

As for `CC(=O)Nc1ccc(Sc2ccc(C)cc2Nc2ncnc3nc(C4CC4)ccc23)cc1`, the results for the EC50 with Hepatitis C virus [1] and with Hepatitis C virus [2] were 15.2 µM and 1.7 µM, respectively. Further, the CC50 in series [3] was 29.8 µM.

For `Cc1ccc(Sc2ccc(O)cc2)c(Nc2ncnc3nc(Oc4ccccc4)ncc23)c1`, the EC50 in the series on Hepatitis C virus [1] turned out to be 5.3 µM; in the series on Hepatitis C virus [2] it was 3.5 µM. In addition, in [3], the CC50 was determined as 17.1 µM.

`CC(=O)Nc1ccc(Sc2ccc(C)cc2Nc2ncnc3nc(C(C)C)ccc23)cc1`: the EC50 in the series on Hepatitis C virus [1] was 2.6 µM; with Hepatitis C virus [2] it was 13.8 µM. In series [3], the CC50 was determined as 28.8 µM.

On to `Cc1ccc(Sc2ccccc2)c(Nc2ccnc3cc(C)ccc23)c1`, for which, in the series on Hepatitis C virus [2], the EC50 was found to be 1.8 µM. Also, the CC50 in [3] is 2.6 µM.
